Assay results taken from PubChem BioAssay (NCI).
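Cells were grown in 96-well plates and exposed to each compound for 48 hours at five concentrations; endpoints were interpolated linearly between bracketing concentrations, or set to the highest concentration if not reached. TGI is the concentration that stops growth completely.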

Assays:
Experiment in all cases: inhibition of tumour cell growth, NCI panel, 48 h
786-0 renal = tested on: 786-0 renal
A498 renal = tested on: A498 renal
A549 NSCLC = tested on: A549 NSCLC
ACHN renal = tested on: ACHN renal
BT-549 breast = tested on: BT-549 breast
CAKI-1 renal = tested on: CAKI-1 renal
CCRF-CEM leukemia = tested on: CCRF-CEM leukemia
COLO 205 colon = tested on: COLO 205 colon
DU-145 prostate = tested on: DU-145 prostate
EKVX NSCLC = tested on: EKVX NSCLC
HCC-2998 colon = tested on: HCC-2998 colon
HCT-116 colon = tested on: HCT-116 colon
HCT-15 colon = tested on: HCT-15 colon
HOP-62 NSCLC = tested on: HOP-62 NSCLC
HS 578T breast = tested on: HS 578T breast
HT29 colon = tested on: HT29 colon
IGROV1 ovarian = tested on: IGROV1 ovarian
K-562 leukemia = tested on: K-562 leukemia
KM12 colon = tested on: KM12 colon
LOX IMVI melanoma = tested on: LOX IMVI melanoma
M14 melanoma = tested on: M14 melanoma
MALME-3M melanoma = tested on: MALME-3M melanoma
MCF7 breast = tested on: MCF7 breast
MDA-MB-231 breast = tested on: MDA-MB-231 breast
MDA-MB-435 = tested on: MDA-MB-435
MDA-N = tested on: MDA-N
MOLT-4 leukemia = tested on: MOLT-4 leukemia
NCI-H226 lung = tested on: NCI-H226 lung
NCI-H460 lung = tested on: NCI-H460 lung
NCI-H522 lung = tested on: NCI-H522 lung
NCI/ADR-RES ovarian = tested on: NCI/ADR-RES ovarian
OVCAR-3 ovarian = tested on: OVCAR-3 ovarian
OVCAR-4 ovarian = tested on: OVCAR-4 ovarian
OVCAR-5 ovarian = tested on: OVCAR-5 ovarian
OVCAR-8 ovarian = tested on: OVCAR-8 ovarian
PC-3 prostate = tested on: PC-3 prostate
RPMI-8226 leukemia = tested on: RPMI-8226 leukemia
RXF 393 renal = tested on: RXF 393 renal
SF-268 CNS = tested on: SF-268 CNS
SF-295 CNS = tested on: SF-295 CNS
SK-MEL-2 melanoma = tested on: SK-MEL-2 melanoma
SK-MEL-28 melanoma = tested on: SK-MEL-28 melanoma
SK-MEL-5 melanoma = tested on: SK-MEL-5 melanoma
SK-OV-3 ovarian = tested on: SK-OV-3 ovarian
SN12C renal = tested on: SN12C renal
SNB-19 CNS = tested on: SNB-19 CNS
SNB-75 CNS = tested on: SNB-75 CNS
SR leukemia = tested on: SR leukemia
SW-620 colon = tested on: SW-620 colon
T-47D breast = tested on: T-47D breast
TK-10 renal = tested on: TK-10 renal
U251 CNS = tested on: U251 CNS
UACC-257 melanoma = tested on: UACC-257 melanoma
UACC-62 melanoma = tested on: UACC-62 melanoma
UO-31 renal = tested on: UO-31 renal
HOP-92 NSCLC = tested on: HOP-92 NSCLC
NCI-H23 lung = tested on: NCI-H23 lung
SF-539 CNS = tested on: SF-539 CNS

Structure (SMILES): CN(C)C1=Nc2ccccc2C(=S)N2CSCC12 (stereo not given)
- TGI (786-0 renal): 62.2 µM
- TGI (A498 renal): > 100 µM
- TGI (A549 NSCLC): > 100 µM
- TGI (ACHN renal): > 100 µM
- TGI (BT-549 breast): > 100 µM
- TGI (CAKI-1 renal): 45 µM
- TGI (CCRF-CEM leukemia): 45.1 µM
- TGI (COLO 205 colon): 52 µM
- TGI (DU-145 prostate): > 100 µM
- TGI (EKVX NSCLC): > 100 µM
- TGI (HCC-2998 colon): > 100 µM
- TGI (HCT-116 colon): > 100 µM
- TGI (HCT-15 colon): > 100 µM
- TGI (HOP-62 NSCLC): > 100 µM
- TGI (HS 578T breast): > 100 µM
- TGI (HT29 colon): > 100 µM
- TGI (IGROV1 ovarian): 52.3 µM
- TGI (K-562 leukemia): > 100 µM
- TGI (KM12 colon): > 100 µM
- TGI (LOX IMVI melanoma): > 100 µM
- TGI (M14 melanoma): > 100 µM
- TGI (MALME-3M melanoma): 51.8 µM
- TGI (MCF7 breast): > 100 µM
- TGI (MDA-MB-231 breast): > 100 µM
- TGI (MDA-MB-435): > 100 µM
- TGI (MDA-N): > 100 µM
- TGI (MOLT-4 leukemia): 54.1 µM
- TGI (NCI-H226 lung): > 100 µM
- TGI (NCI-H460 lung): > 100 µM
- TGI (NCI-H522 lung): 29 µM
- TGI (NCI/ADR-RES ovarian): > 100 µM
- TGI (OVCAR-3 ovarian): > 100 µM
- TGI (OVCAR-4 ovarian): > 100 µM
- TGI (OVCAR-5 ovarian): > 100 µM
- TGI (OVCAR-8 ovarian): > 100 µM
- TGI (PC-3 prostate): > 100 µM
- TGI (RPMI-8226 leukemia): > 100 µM
- TGI (RXF 393 renal): > 100 µM
- TGI (SF-268 CNS): > 100 µM
- TGI (SF-295 CNS): > 100 µM
- TGI (SK-MEL-2 melanoma): > 100 µM
- TGI (SK-MEL-28 melanoma): > 100 µM
- TGI (SK-MEL-5 melanoma): > 100 µM
- TGI (SK-OV-3 ovarian): > 100 µM
- TGI (SN12C renal): > 100 µM
- TGI (SNB-19 CNS): > 100 µM
- TGI (SNB-75 CNS): > 100 µM
- TGI (SR leukemia): 48 µM
- TGI (SW-620 colon): > 100 µM
- TGI (T-47D breast): > 100 µM
- TGI (TK-10 renal): > 100 µM
- TGI (U251 CNS): > 100 µM
- TGI (UACC-257 melanoma): > 100 µM
- TGI (UACC-62 melanoma): > 100 µM
- TGI (UO-31 renal): > 100 µM

Structure (SMILES): O=C(O)Cc1c(O)ccc2ccccc12
- TGI (786-0 renal): > 100 µM
- TGI (A498 renal): > 100 µM
- TGI (A549 NSCLC): > 100 µM
- TGI (ACHN renal): > 100 µM
- TGI (BT-549 breast): > 100 µM
- TGI (CAKI-1 renal): > 100 µM
- TGI (COLO 205 colon): > 100 µM
- TGI (DU-145 prostate): > 100 µM
- TGI (EKVX NSCLC): > 100 µM
- TGI (HCT-116 colon): > 100 µM
- TGI (HCT-15 colon): > 100 µM
- TGI (HOP-62 NSCLC): > 100 µM
- TGI (HOP-92 NSCLC): > 100 µM
- TGI (HS 578T breast): > 100 µM
- TGI (HT29 colon): > 100 µM
- TGI (IGROV1 ovarian): > 100 µM
- TGI (K-562 leukemia): > 100 µM
- TGI (KM12 colon): > 100 µM
- TGI (LOX IMVI melanoma): > 100 µM
- TGI (M14 melanoma): > 100 µM
- TGI (MALME-3M melanoma): > 100 µM
- TGI (MCF7 breast): > 100 µM
- TGI (MDA-MB-231 breast): > 100 µM
- TGI (MDA-MB-435): > 100 µM
- TGI (MDA-N): > 100 µM
- TGI (MOLT-4 leukemia): > 100 µM
- TGI (NCI-H226 lung): > 100 µM
- TGI (NCI-H23 lung): > 100 µM
- TGI (NCI-H460 lung): > 100 µM
- TGI (NCI-H522 lung): > 100 µM
- TGI (NCI/ADR-RES ovarian): > 100 µM
- TGI (OVCAR-3 ovarian): > 100 µM
- TGI (OVCAR-4 ovarian): > 100 µM
- TGI (OVCAR-5 ovarian): > 100 µM
- TGI (OVCAR-8 ovarian): > 100 µM
- TGI (PC-3 prostate): > 100 µM
- TGI (RPMI-8226 leukemia): > 100 µM
- TGI (RXF 393 renal): > 100 µM
- TGI (SF-268 CNS): > 100 µM
- TGI (SF-295 CNS): > 100 µM
- TGI (SF-539 CNS): > 100 µM
- TGI (SK-MEL-2 melanoma): > 100 µM
- TGI (SK-MEL-28 melanoma): > 100 µM
- TGI (SK-MEL-5 melanoma): > 100 µM
- TGI (SK-OV-3 ovarian): > 100 µM
- TGI (SN12C renal): > 100 µM
- TGI (SNB-19 CNS): > 100 µM
- TGI (SNB-75 CNS): > 100 µM
- TGI (SR leukemia): > 100 µM
- TGI (SW-620 colon): > 100 µM
- TGI (T-47D breast): > 100 µM
- TGI (TK-10 renal): > 100 µM
- TGI (U251 CNS): > 100 µM
- TGI (UACC-257 melanoma): > 100 µM
- TGI (UACC-62 melanoma): > 100 µM
